How the values were obtained:
[1] = system: Oxygen consumption (mitochondrial function); assay: Oxygen consumption assay (MitoXpress probe); type: cell-based; settings: MitoXpress probe signal, kinetic analysis at 37° C. for 5 hours, compared to untreated cells
Description: Oxygen consumption is one of the most informative and direct measures of mitochondrial function and can be measured, for example, by using the MitoXpress® assay (Luxcel MX-2001, Luxcel Biosciences). The MitoXpress® probe is one of a family of phosphorescent oxygen sensitive probes. The assay exploits the ability of oxygen to quench the excited state of the MitoXpress® probe. As the test material respires (i.e. the cells), oxygen is depleted in the surrounding solution/environment, which increases the probe phosphorescence signal. Changes in oxygen consumption reflecting changes in mitochondrial activity are seen as changes in the MitoXpress® probe signal over time.
Cells were seeded in 96 well black plates with transparent bottoms (Greiner Bio-One cat. no. 655090) at a density of 50′000 cells/well in a final volume of 100 μL. After 24 hours the incubation media was removed and 150 μL of fresh media containing inhibitors at different concentrations was added to each well. Then, 10 μL of MitoXpress® and 150 μL mineral oil were added per well. Reading from the top of the plate, kinetic analysis was performed at 37° C. for 5 hours using a Synergy 4 plate reader (BioTek) and Time-resolved Fluoresence (TRF) wavelengths of 380/11 nm excitation and 650/20 nm emission or 665/40 emission (30 microsecond delay time, 100 microsecond integration time, gain or sensitivity settings set at either medium or high). IC50s were calculated as the concentration that inhibits 50% of the phosphorescent oxygen sensitive probe signal (MitoXpress®) as compared to untreated cells.

HeLa galactose cells = assay: Cell growth and proliferation assay of HeLa galactose cells (crystal violet); type: cell-based; settings: 72 hours incubation, crystal violet staining, absorbance at 590 nm
Experimental: The cervical tumor cell line HeLa (ATCC, CCL-2) was cultivated in DMEM medium (Invitrogen cat. no. 11971, 4.5 g/L high glucose) containing 10% fetal calf serum (Sigma cat. no. F9665) and 1% Penicillin/Streptomycin (Sigma cat. no. P0781) at 37° C. in 5% CO2. HeLa galactose cells (i.e. HeLa cells that grow in high concentrations of galactose) were generated from HeLa glucose cells (i.e. HeLa cells that grow in high concentrations of glucose) by gradually changing the amount of glucose in the media to zero glucose in the presence of galactose as a sugar source (50% galactose/50% glucose media for one week, then 75% galactose/25% glucose media for one week, to 100% galactose media in the third week). Galactose media (Invitrogen cat. no. 11966) was supplemented with 10 mM galactose (Sigma cat. no. G5388).
Cell Growth and Proliferation Assay of HeLa Galactose and Glucose Cells
HeLa galactose cells and HeLa glucose cells were seeded in 96 well plates (TPP, cat. no 92696) at 2000 and 1500 cells/well, respectively, in 100 μL of complete medium. After overnight incubation the cells were incubated for 72 hours in complete medium containing 0.001% DMSO or compounds (final concentration of DMSO 0.001%). After the medium was removed, cells were fixed and stained by adding 50 μL crystal violet staining (0.2% crystal violet (Sigma-Aldrich cat. no. C0775) in 50% methanol) per well. The plates were incubated for 1 hour at room temperature. Subsequently the stain was decanted and plates were washed 4 times with de-mineralized water. Plates were air-dried for 2 hours. The stain was dissolved by adding 100 μL buffer (0.1 M Tris pH 7.5, 0.2% SDS, 20% ethanol) per well and shaking the plates. Absorbance at 590 nm was measured using a SpectraMax® 250 plate reader (Molecular Devices). Antiproliferative/growth inhibition IC50s were calculated from concentration-response curves using GraphPad Prism software.

SMILES: Cc1nsc(NC(=O)N2CCC(Oc3ccc(OC(F)(F)F)cc3)CC2)n1 [Example 56]
- IC50 ([1]; 5 h): 1.25 µM
- IC50 (HeLa galactose cells; Homo sapiens, HeLa, 72 h): 0.736 µM

SMILES: Cc1nsc(NC(=O)N2CCC(Cc3cc(C)c(Cl)cc3F)CC2)n1 [Example 64]
- IC50 ([1]; 5 h): 0.187 µM
- IC50 (HeLa galactose cells; Homo sapiens, HeLa, 72 h): 0.089 µM

SMILES: Cc1nsc(NC(=O)N2CCC(Cc3c(F)cc(O)cc3F)CC2)n1 [Example 100]
- IC50 ([1]; 5 h): 0.402 µM
- IC50 (HeLa galactose cells; Homo sapiens, HeLa, 72 h): 0.2 µM

SMILES: Cc1ccc(CC2CCN(C(=O)Nc3nc(C)ns3)CC2)cc1 [Example 5]
- IC50 ([1]; 5 h): 0.1 µM
- IC50 (HeLa galactose cells; Homo sapiens, HeLa, 72 h): 0.036 µM

SMILES: Cc1nsc(NC(=O)N2CCC(Cc3ccc(Cl)cc3Cl)CC2)n1 [Example 8]
- IC50 ([1]; 5 h): 0.2 µM
- IC50 (HeLa galactose cells; Homo sapiens, HeLa, 72 h): 0.032 µM

SMILES: Cc1nsc(NC(=O)N2CCCC(Cc3ccc(Cl)cc3F)CC2)n1 (stereo not shown) [Example 49, 4-[(4-chloro-2-fluoro-phenyl)methyl]-N-(3-methyl-1,2,4-thiadiazol-5-yl)azepane-1-carboxamide]
- IC50 ([1]; 5 h): 0.058 µM
- IC50 (HeLa galactose cells; Homo sapiens, HeLa, 72 h): 0.021 µM

SMILES: O=C(Nc1nc(CCN2CCOCC2)ns1)N1CCC(=Cc2ccc(Cl)cc2F)CC1 [Example 79, 4-[(4-chloro-2-fluoro-phenyl)methylene]-N-[3-(2-morpholinoethyl)-1,2,4-thiadiazol-5-yl]piperidine-1-carboxamide]
- IC50 ([1]; 5 h): 0.378 µM
- IC50 (HeLa galactose cells; Homo sapiens, HeLa, 72 h): 0.279 µM

SMILES: COCc1cc(NC(=O)N2CCC(=Cc3ccc(Cl)cc3F)CC2)ccn1 [Example 176]
- IC50 ([1]; 5 h): 0.133 µM
- IC50 (HeLa galactose cells; Homo sapiens, HeLa, 72 h): 0.054 µM

SMILES: Cc1ccc(CC2CCN(C(=O)Nc3nc(C)ns3)CC2)c(F)c1 [Example 27, 4-[(2-fluoro-4-methyl-phenyl)methyl]-N-(3-methyl-1,2,4-thiadiazol-5-yl)piperidine-1-carboxamide]
- IC50 ([1]; 5 h): 0.083 µM
- IC50 (HeLa galactose cells; Homo sapiens, HeLa, 72 h): 0.059 µM

SMILES: Cc1nsc(NC(=O)N2CC/C(=C/c3ccc(Cl)cc3F)CC2C(C)C)n1 (stereo not shown) [Example 87]
- IC50 ([1]; 5 h): 0.335 µM
- IC50 (HeLa galactose cells; Homo sapiens, HeLa, 72 h): 0.262 µM

SMILES: O=C(Nc1ccnc(C2CC2)c1)N1CCC(=Cc2ccc(Cl)cc2F)CC1 [Example 183, 4-[(4-chloro-2-fluoro-phenyl)methylene]-N-(2-cyclopropyl-4-pyridyl)piperidine-1-carboxamide]
- IC50 ([1]; 5 h): 0.042 µM
- IC50 (HeLa galactose cells; Homo sapiens, HeLa, 72 h): 0.021 µM

SMILES: Cc1ccc(SC2CCN(C(=O)Nc3nc(C)ns3)CC2)cc1 [Example 7, N-(3-methyl-1,2,4-thiadiazol-5-yl)-4-(p-tolylsulfanyl)piperidine-1-carboxamide]
- IC50 ([1]; 5 h): 0.5 µM
- IC50 (HeLa galactose cells; Homo sapiens, HeLa, 72 h): 0.142 µM

SMILES: Cc1nsc(NC(=O)N2CCC(=Cc3c(F)cc(N(C)CC4CN(C)C4)cc3F)CC2)n1 [Example 161]
- IC50 ([1]; 5 h): 0.159 µM
- IC50 (HeLa galactose cells; Homo sapiens, HeLa, 72 h): 0.05 µM

SMILES: Cc1ccc(CC2CCN(C(=O)Nc3nc(C)ns3)CC2)c(C)c1 [Example 12]
- IC50 ([1]; 5 h): 0.5 µM
- IC50 (HeLa galactose cells; Homo sapiens, HeLa, 72 h): 0.019 µM

SMILES: Cc1nsc(NC(=O)N2CCC(Cc3ccc(Cl)cc3F)C(C)C2)n1 (single isomer, unassigned) [Example 84b, 4-[(4-chloro-2-fluoro-phenyl)methyl]-3-methyl-N-(3-methyl-1,2,4-thiadiazol-5-yl)piperidine-1-carboxamide]
- IC50 [1]: 0.121 µM
- IC50 (HeLa galactose cells): 0.075 µM

SMILES: COc1ccc(C=C2CCCN(C(=O)Nc3nc(C)ns3)CC2)c(F)c1 [Example 103]
- IC50 ([1]; 5 h): 0.156 µM
- IC50 (HeLa galactose cells; Homo sapiens, HeLa, 72 h): 0.071 µM

SMILES: COc1ccc(C(=O)C2CCN(C(=O)Nc3nc(C)ns3)CC2)c(F)c1 [Example 140, 4-(2-fluoro-4-methoxy-benzoyl)-N-(3-methyl-1,2,4-thiadiazol-5-yl)piperidine-1-carboxamide]
- IC50 ([1]; 5 h): 0.094 µM
- IC50 (HeLa galactose cells; Homo sapiens, HeLa, 72 h): 0.043 µM

SMILES: Cc1nsc(NC(=O)N2CC/C(=C\c3ccc(Cl)cc3F)C(C)(C)C2)n1 [Example 85, (4E)-4-[(4-chloro-2-fluoro-phenyl)methylene]-3,3-dimethyl-N-(3-methyl-1,2,4-thiadiazol-5-yl)piperidine-1-carboxamide]
- IC50 ([1]; 5 h): 0.083 µM
- IC50 (HeLa galactose cells; Homo sapiens, HeLa, 72 h): 0.038 µM

SMILES: Cc1nsc(NC(=O)N2CCC(Cc3c(F)cc(Cl)cc3Cl)CC2)n1 [Example 66]
- IC50 ([1]; 5 h): 0.119 µM
- IC50 (HeLa galactose cells; Homo sapiens, HeLa, 72 h): 0.067 µM

SMILES: COc1cc(F)c(C=C2CCN(C(=O)Nc3nc(C)ns3)CC2)cn1 [Example 69]
- IC50 ([1]; 5 h): 0.119 µM
- IC50 (HeLa galactose cells; Homo sapiens, HeLa, 72 h): 0.091 µM

SMILES: Cc1nsc(NC(=O)N2CCC(Cc3ccc(OC(F)(F)F)cc3)CC2)n1 [Example 53]
- IC50 ([1]; 5 h): 0.89 µM
- IC50 (HeLa galactose cells; Homo sapiens, HeLa, 72 h): 0.329 µM

SMILES: Cc1nsc(NC(=O)N2CCC(=Cc3c(F)cc(N(C)CC#N)cc3F)CC2)n1 [Example 164, 4-[[4-[cyanomethyl(methyl)amino]-2,6-difluoro-phenyl]methylene]-N-(3-methyl-1,2,4-thiadiazol-5-yl)piperidine-1-carboxamide]
- IC50 ([1]; 5 h): 0.016 µM
- IC50 (HeLa galactose cells; Homo sapiens, HeLa, 72 h): 0.019 µM

SMILES: Cc1nsc(NC(=O)N2CCC/C(=C/c3c(F)cc(N(C)C)cc3F)CC2)n1 [Example 115, (4Z)-4-[[4-(dimethylamino)-2,6-difluoro-phenyl]methylene]-N-(3-methyl-1,2,4-thiadiazol-5-yl)azepane-1-carboxamide]
- IC50 ([1]; 5 h): 0.079 µM
- IC50 (HeLa galactose cells; Homo sapiens, HeLa, 72 h): 0.029 µM

SMILES: Cc1nsc(NC(=O)N2CCC(=Cc3c(F)cc(Cl)cc3F)CC2)n1 [Example 26, 4-[(4-chloro-2,6-difluoro-phenyl)methylene]-N-(3-methyl-1,2,4-thiadiazol-5-yl)piperidine-1-carboxamide]
- IC50 ([1]; 5 h): 0.023 µM
- IC50 (HeLa galactose cells; Homo sapiens, HeLa, 72 h): 0.015 µM

SMILES: CCc1cc(NC(=O)N2CCC(=Cc3c(F)cc(C#N)cc3F)CC2)ccn1 [Example 179, 4-[(4-cyano-2,6-difluoro-phenyl)methylene]-N-(2-ethyl-4-pyridyl)piperidine-1-carboxamide]
- IC50 ([1]; 5 h): 0.041 µM
- IC50 (HeLa galactose cells; Homo sapiens, HeLa, 72 h): 0.011 µM

SMILES: Cc1nsc(NC(=O)N2CCC(Cc3c(F)cc(Cl)cc3F)CC2)n1 [Example 25, 4-[(4-chloro-2,6-difluoro-phenyl)methyl]-N-(3-methyl-1,2,4-thiadiazol-5-yl)piperidine-1-carboxamide]
- IC50 ([1]; 5 h): 0.055 µM
- IC50 (HeLa galactose cells; Homo sapiens, HeLa, 72 h): 0.018 µM

SMILES: Cc1nsc(NC(=O)N2CCC(Cc3ccc(C(C)(C)C)cc3)CC2)n1 [Example 11]
- IC50 ([1]; 5 h): 1.3 µM
- IC50 (HeLa galactose cells; Homo sapiens, HeLa, 72 h): 0.193 µM

SMILES: O=C(Nc1ncns1)N1CCC(Cc2ccc(Cl)cc2F)CC1 [Example 48]
- IC50 ([1]; 5 h): 0.278 µM
- IC50 (HeLa galactose cells; Homo sapiens, HeLa, 72 h): 0.146 µM

SMILES: Cc1nccc(NC(=O)N2CCC(Cc3ccc(Cl)cc3F)CC2)n1 [Example 71]
- IC50 ([1]; 5 h): 0.338 µM
- IC50 (HeLa galactose cells; Homo sapiens, HeLa, 72 h): 0.227 µM

SMILES: Cc1cc(NC(=O)N2CCC(=Cc3c(F)cc(N(C)C)cc3F)CC2)ccn1 [Example 154]
- IC50 ([1]; 5 h): 0.192 µM
- IC50 (HeLa galactose cells; Homo sapiens, HeLa, 72 h): 0.037 µM

SMILES: Cc1cc(NC(=O)N2CCC(Cc3c(F)cc(Cl)cc3F)CC2)ccn1 [Example 145]
- IC50 ([1]; 5 h): 0.106 µM
- IC50 (HeLa galactose cells; Homo sapiens, HeLa, 72 h): 0.015 µM

SMILES: COc1ccc(C(=O)C2CCN(C(=O)Nc3nc(C)ns3)CC2)cc1 [Example 76]
- IC50 ([1]; 5 h): 0.332 µM
- IC50 (HeLa galactose cells; Homo sapiens, HeLa, 72 h): 0.19 µM

SMILES: COCCC1CN(C(=O)Nc2nc(C)ns2)CC/C1=C\c1ccc(Cl)cc1F (stereo not shown) [Example 135, (4E)-4-[(4-chloro-2-fluoro-phenyl)methylene]-3-(2-methoxyethyl)-N-(3-methyl-1,2,4-thiadiazol-5-yl)piperidine-1-carboxamide]
- IC50 (HeLa galactose cells; Homo sapiens, HeLa, 72 h): 0.636 µM

SMILES: O=C(Nc1ccncn1)N1CCC(Cc2ccc(Cl)cc2Cl)CC1 [Example 22, 4-[(2,4-dichlorophenyl)methyl]-N-pyrimidin-4-yl-piperidine-1-carboxamide]
- IC50 (HeLa galactose cells; Homo sapiens, HeLa, 72 h): 0.837 µM

SMILES: Cc1nsc(NC(=O)N2CCC(=Cc3ccc(N(C)CCN)cc3F)CC2)n1 [Example 122, 4-[[4-[2-aminoethyl(methyl)amino]-2-fluoro-phenyl]methylene]-N-(3-methyl-1,2,4-thiadiazol-5-yl)piperidine-1-carboxamide]
- IC50 (HeLa galactose cells; Homo sapiens, HeLa, 72 h): 0.182 µM

Source: patent publication US20190142810A1, “MITOCHONDRIAL INHIBITORS FOR THE TREATMENT OF PROLIFERATION DISORDERS” (Basilea Pharmaceutica International AG, priority 2016, published 2019)
